Reference: a melting point compilation (Tetko et al.; mined from patent text by program, amines drawn as free bases though some values may be those of a salt)

First: N#Cc1ccc(NC(=NS(=O)(=O)c2ccccc2)NCC(=O)O)cc1
Second: CC(C)(C)NS(=O)(=O)c1ccccc1-c1ccc(NC(=O)N(Cc2cccc(C(=N)N)c2)c2ccccc2)cc1
The melting point of the first is lower: 133 °C for the first, 140 to 141 °C for the second.

First: COC(=O)N=C(NC(=O)Nc1ccc(Cl)c(C(=O)OC(C)C)c1)SC
Second: COC(=O)c1ccc(NC(=O)c2cc(C(C)C)c(C(C)C)s2)cn1
The melting point of the first is lower: 93 to 94 °C for the first, 207 to 208 °C for the second.

First: CC(C)CCCC(C)NC(=O)Oc1ccc2oc3ccccc3c2c1 (stereo unspecified)
Second: COC(=O)c1c(I)ccc2c(=O)c3ccccc3[nH]c12
The melting point of the first is lower: 114 to 115 °C for the first, 202 to 204 °C for the second.

First: COc1cc2c(cc1OC)N(c1ccc([N+](=O)[O-])cc1)CC2
Second: COc1ccc2c(c1)CCc1cc(OC)ccc1N2
The melting point of the first is higher: 176 to 179 °C for the first, 123 to 124 °C for the second.

First: CN(C)n1cnnc1NN=Cc1c(Cl)cccc1Cl
Second: COc1ccc2c(C)nnc(Cl)c2c1
The melting point of the first is higher: 189 °C for the first, 151 to 153 °C for the second.

Compared with `COc1cc(-n2cccn2)ccc1-n1cc(OC)c(=O)c(-c2ccnn2-c2ccccc2)n1`, `Cc1oc(-c2ccccc2)nc1COc1ccc(COc2nn(-c3ccccc3)cc2/C=C/C(=O)O)cc1` is higher in melting point: 133 to 135 °C for the first, 186 to 187 °C for the second.

Compared with `CCC(CC)(CO)CS(N)(=O)=O`, `CCCCOc1nsnc1S(C)(=O)=O` is lower in melting point: 66 to 68 °C for the first, 39 to 40 °C for the second.

First: Cc1ccc(-c2ccccc2)cc1Cn1c(C2CC2)nn(C)c1=O
Second: C[Si](C)(Cn1ccnc1)c1ccc(-c2ccccc2)cc1
The melting point of the first is higher: 102 °C for the first, 51 to 53 °C for the second.

Compared with `O=C(NS(=O)(=O)C=Cc1ccccc1)N1CCC(CCCc2ccccc2)CC1`, `CCOc1ccccc1OCC1(O)CCN(Cc2ccccc2)C1` (stereo unspecified) is lower in melting point: 125 to 127 °C for the first, 56.5 to 59 °C for the second.

First: COc1ccc2c(c1C)CCc1ccc(-c3cccnc3)cc1C21N=C(N)N(C)C1=O (stereo unspecified)
Second: COc1cc(-c2c(C)c3cc(O)ccc3n2Cc2ccc(OCCN3CCCCC3)cc2)ccc1O
The melting point of the first is higher: 235 to 239 °C for the first, 161 to 163 °C for the second.

First: O=C(c1ccccc1)c1nc(Br)c(Br)[nH]1
Second: CCOC(=O)c1[nH]c(Cl)nc1-c1ccccc1
The melting point of the first is higher: 215 to 217 °C for the first, 128 to 129 °C for the second.

First: CC(C)N1C(=O)NC(c2cnc3ccccc3c2)c2cc3c(cc21)OCO3 (stereo unspecified)
Second: COc1cc2cc(C(=O)N3CC(CCl)c4c3cc(N)c3ccccc43)[nH]c2cc1OCCN(C)C (stereo unspecified)
The melting point of the first is higher: 202 to 205 °C for the first, 130 to 133 °C for the second.

First: Cc1nc(NC(=O)C2CC2)sc1C(=O)NCc1ccccc1
Second: COc1ccccc1NC(=O)Nc1nc2c(s1)CN(C)CC2
The melting point of the first is higher: 241 to 243 °C for the first, 201 to 203 °C for the second.

Compared with `N#Cc1ccc(OCCCCCCOc2cccc(-c3cc4cc(C#N)ccc4o3)c2)cc1`, `CCCc1c(OCCCOc2ccc([N+](=O)[O-])cc2)ccc(C(C)=O)c1O` is lower in melting point: 134 to 136 °C for the first, 98 °C for the second.

First: CCCOCCCCOCCCCCCNCC(O)c1cc(Cl)c(N)c(Cl)c1 (stereo unspecified)
Second: CCCCCCCCCCCCNc1ccnc(Cl)n1
The melting point of the first is lower: 51 to 53 °C for the first, 80 to 82 °C for the second.

First: CCOC(=O)c1c(C)nn(-c2ccccc2[N+](=O)[O-])c1C
Second: CC1=C(C(=O)OC(C)C)C(c2cccc([N+](=O)[O-])c2)N(C(N)=O)C(=O)N1 (stereo unspecified)
The melting point of the first is lower: 128 to 130 °C for the first, 160 to 161 °C for the second.

Compared with `O=C(O)CCCCCCCn1c(-c2ccc(O)cc2)nc(-c2ccccc2)c1-c1ccccc1`, `O=C(O)CS(=O)CCCCCn1nc(-c2ccccc2)c(-c2ccccc2)c1-c1ccccc1` (stereo unspecified) is lower in melting point: 167 °C for the first, 129 to 130 °C for the second.

First: CCOC(=O)CNC(=O)c1ncc(O)cc1O
Second: CCOC(=O)C(NC(=O)CCl)N(C(=O)CCl)c1cscn1 (stereo unspecified)
The melting point of the first is lower: 96 to 98 °C for the first, 102 to 104 °C for the second.

First: Cc1ccc2cccc(OCc3c(Cl)ccc(S(=O)(=O)N(CCCCN)C(C)(C)C)c3Cl)c2n1
Second: CCC(=O)Nc1ccc(Cl)c(COc2cccn3c(Br)c(C)nc23)c1Cl
The melting point of the first is lower: 142 to 144 °C for the first, 205 to 207 °C for the second.

Compared with `Cc1ccc2c(c1)C1CN(CCCC#N)CCC1N2` (stereo unspecified), `Clc1ccc2c(C3CCNCC3)n[nH]c2c1` is higher in melting point: 160 to 165 °C for the first, 174 to 176 °C for the second.

Compared with `Cc1csc2c1cc(C(=O)c1ccccc1)n2CC(=O)O`, `Cn1cc(C(=O)O)c(=O)c2sc(-c3ccccc3)cc21` is higher in melting point: 197 °C for the first, 290 to 292 °C for the second.

Compared with `CCCCCCCCCCCCCCOc1ccc(NC(=O)c2cccc(CBr)c2)cc1`, `CCOC(=O)C(Cc1ccc(O)cc1)Oc1ccc(F)cc1` (stereo unspecified) is lower in melting point: 140 to 142 °C for the first, 80 to 81 °C for the second.

Compared with `O=C(Nc1ccccc1Oc1cc(Cl)cc(Cl)c1)C1CCNCC1`, `O=C1NC(=O)C2(c3cc(Oc4ccc(O)cc4)c(Cl)cc3F)CCCCC12` (stereo unspecified) is lower in melting point: 138 to 139 °C for the first, 117 to 120 °C for the second.

First: Cc1ccc(-c2nc3c([nH]c(=O)c4ccccc43)s2)cc1
Second: COc1ccc(S(=O)(=O)Nc2cccnc2Nc2ccc(C)cc2)cc1
The melting point of the first is higher: 314 to 316 °C for the first, 188 to 189 °C for the second.

First: COc1ccc2c(c1)c(=O)c(-c1nnnn1C)cn2C
Second: COc1ccc2[nH]c(C)c(C=O)c2c1
The melting point of the first is higher: 280 to 283 °C for the first, 190 to 191 °C for the second.

First: CN(C(=O)C(F)(F)F)C(C(=O)O)c1ccccc1 (stereo unspecified)
Second: COC(=O)C(=NOCc1ccccc1)C(C)=O
The melting point of the first is higher: 124 to 126 °C for the first, 35 to 36 °C for the second.

First: Cc1ccc(NC(=N)c2ccncc2)cc1
Second: Cn1cc(-c2ccncc2)cc(N)c1=O
The melting point of the first is lower: 120 to 123 °C for the first, 175 to 176 °C for the second.

First: O=C(CC1NC(=O)c2ccsc2-n2cccc21)c1ccccc1 (stereo unspecified)
Second: Cn1c(NC(=O)c2ccccc2)nc2ccccc2c1=O
The melting point of the first is higher: 205 °C for the first, 185 to 187 °C for the second.

First: CCN(C)CCOc1ccc(/C=C/C(=O)O)cc1
Second: CCCc1c(OCc2ccc(C(=O)O)cc2OCC)ccc(C(C)=O)c1O
The melting point of the first is higher: 206 °C for the first, 152 to 153 °C for the second.

First: CCC(C)(C)c1cc(-c2cccc(CC3SC(N4CCOCC4)=NC3=O)c2)ccc1O (stereo unspecified)
Second: CC(C)(C)c1cc(CCCO)cc(-n2nc3ccc(S(=O)(=O)c4ccccc4)cc3n2)c1O
The melting point of the first is lower: 74 to 77 °C for the first, 159 to 161 °C for the second.

Compared with `CNc1nc(C(C)c2ccc(-c3ccccc3)c(F)c2)cs1` (stereo unspecified), `COc1cc(C=Cc2ccccc2)cc(OC)c1OC` is lower in melting point: 144 to 145 °C for the first, 108 °C for the second.

First: CC(=O)NC1CN(C)S(=O)(=O)c2sc(S(N)(=O)=O)cc21 (stereo unspecified)
Second: NS(=O)(=O)c1cc2c(c(C(=O)O)c1)OCCO2
The melting point of the first is lower: 252 to 253 °C for the first, 272 to 274 °C for the second.

First: C#Cc1cccc(Nc2ncnc3[nH]cc(-c4ccc(Cl)cc4)c23)c1
Second: Clc1ccc(Cn2ccc3cc(OCc4ccc5ccccc5n4)ccc32)cc1
The melting point of the first is higher: 225 to 227 °C for the first, 102 to 104 °C for the second.

First: CCOC(=O)c1c(OCC)nsc1NC(=O)NC
Second: COC(=O)CN(NC(N)=O)c1cc(C)cc(C)c1
The melting point of the first is higher: 195 to 196 °C for the first, 139 to 141 °C for the second.

First: CCOC(=O)C(Cc1ccc2ccccc2n1)(OC1CCCCO1)C(=O)OCC (stereo unspecified)
Second: COc1cc(C(=O)O)ccc1Cn1nc(OC)c2ccc(NC(=O)OC3CCCC3)cc21
The melting point of the first is lower: 75 to 78 °C for the first, 199 to 200 °C for the second.

Compared with `CCCCCCCC(=O)NC(=O)OCc1nc(C(C)C)c(Sc2cc(Cl)cc(Cl)c2)n1CC`, `CCCc1c(OCCCOc2ccc3c(c2CCC)OC(C)(CCC(=O)OC)CC3)ccc(C(C)=O)c1O` (stereo unspecified) is lower in melting point: 99 to 101 °C for the first, 53 to 55 °C for the second.

Compared with `CC(C)(C)c1cc(C(=O)O)cc(I)c1O`, `CC(C)(CO)NC(=O)c1ccncc1C1=CCCc2ccccc21` is lower in melting point: 178 °C for the first, 157 °C for the second.

Compared with `CN(C)c1nc(NCc2ccc(NC(=O)c3ccc(F)cc3)cc2)c2ccc(CO)cc2n1`, `O=c1c2ccc3[nH]ccc3c2ccn1Cc1ccc(F)cc1` is higher in melting point: 158 °C for the first, 171 to 173 °C for the second.

First: Cn1c(C(F)(F)F)ccc(-c2c(F)cc(Cl)c3oc(C(=O)O)cc23)c1=O
Second: Cc1cc(=O)[nH]nc1-c1cccc(C(F)(F)F)c1
The melting point of the first is higher: 233 to 235 °C for the first, 224 to 227 °C for the second.

First: O=C(Nc1cccc(-c2cnc(-c3cccc(NC(=O)c4ccccn4)c3)[nH]2)c1)c1ccccn1
Second: COC(=O)[C@@H]1O[C@@H](c2ccccc2)N(NS(=O)(=O)c2c3ccccc3cc3ccccc23)[C@H]1c1ccccc1
The melting point of the first is higher: 208 to 210 °C for the first, 71 to 73 °C for the second.

First: N#CN=C(Nc1cccnc1)NC1CCCC1
Second: CC(=NNC(=S)NCCN1CCOCC1)c1ccccn1
The melting point of the first is lower: 155 to 156 °C for the first, 168 to 169 °C for the second.

First: CCCc1c2c(cc3c(=O)cc(C(=O)OCC)oc13)C(O)C(C(=O)OCC)(C(=O)OCC)O2 (stereo unspecified)
Second: COc1cc(OC)cc(-c2cc(=O)c3ccc(OCC(O)CNC(C)(C)C)cc3o2)c1 (stereo unspecified)
The melting point of the first is lower: 131 to 133 °C for the first, 145 to 146 °C for the second.

Compared with `C=CC(=O)Nc1ccc2ccc(Cl)nc2n1`, `CN(C(=O)Nc1nc(OCC(F)(F)F)cc(OCC(F)(F)F)n1)c1ccc(Br)cc1` is lower in melting point: 200 °C for the first, 110 to 111 °C for the second.

First: CC1SC(=O)NN=C1c1ccc2c(c1)C(=Cc1cccs1)C(=O)N2 (stereo unspecified)
Second: Nc1ccc(O)c(-c2cccs2)c1
The melting point of the first is higher: 287 °C for the first, 130 to 132 °C for the second.

First: O=CCCc1c[nH]c2ccc(F)cc12
Second: O=C(NCCSCc1cccc(Cl)c1)c1c([N+](=O)[O-])cccc1[N+](=O)[O-]
The melting point of the first is lower: 79 to 80 °C for the first, 139 to 140 °C for the second.

First: COC(=O)C1(c2ccc(OCCNC(=O)C3Cc4ccccc4N3S(=O)(=O)c3ccc(-c4cc(C(F)(F)F)ccc4Cl)cc3)cc2)CC1 (stereo unspecified)
Second: COc1cc(CC(=O)O)ccc1OCCNC(=O)C1Cc2ccccc2N1S(=O)(=O)c1ccc(-c2cccc(C(F)(F)F)c2)cc1 (stereo unspecified)
The melting point of the first is lower: 64 to 72 °C for the first, 89 to 98 °C for the second.

First: Cc1cc2oc(-c3ccccn3)nc2cc1N=C=S
Second: c1ccc2c(c1)CCONC2
The melting point of the first is higher: 192 to 194 °C for the first, 190 to 192 °C for the second.

Compared with `COc1ccc(C2Cc3cc(C(F)(F)F)ccc3NC(=O)C2COS(=O)(=O)c2ccc(C)cc2)cc1` (stereo unspecified), `CCC(CC)C(NS(=O)(=O)c1ccc(Cl)s1)c1ccnn1S(=O)(=O)c1ccc(C)cc1` (stereo unspecified) is lower in melting point: 170 to 172 °C for the first, 146 to 148 °C for the second.

Compared with `COc1ccc(C2CCC(C(=O)O)CC2)c2c1OCO2` (stereo unspecified), `CC(C)(C)NC(=O)[C@@H]1C[C@H](N2CCOCC2)CN1C(=O)[C@@H](O)[C@H](Cc1ccccc1)NC(=O)[C@H](CC(N)=O)NC(=O)OCc1ccccc1` is lower in melting point: 206 to 208 °C for the first, 115 to 117 °C for the second.

First: CCCCC1(N(C)C)CCC(c2[nH]c3ccccc3c2C)(c2[nH]c3ccccc3c2CCNC(=O)Nc2ccccc2)CC1 (stereo unspecified)
Second: CNC(=O)C(NC(=O)C(CC(C)C)C(CC(=O)OC)SC(C)=O)C(C)OCc1ccccc1 (stereo unspecified)
The melting point of the first is higher: 115 to 120 °C for the first, 105 to 106 °C for the second.

Work on `CC(C)C1(C)CC(=O)CC(C)(C)N1OC(C)(C)C#N` (stereo unspecified) yielded a melting point of 32 to 44 °C.
